Measured values as given in PMC5459853, “Cathepsin S inhibition combines control of systemic and peripheral pathomechanisms of autoimmune tissue injury” (Scientific Reports, 2017).
Like-named read-outs stand apart in the source and are kept apart here.

Columns and labels:
MRL-(Fas)lpr mice = assay: Experimental SLE and lupus nephritis, treatment week 11 to 19; type: in vivo
Method: Four-week-old female MRL-(Fas)lpr mice were purchased from Harlan Winkelmann (Borchen, Germany) and kept under pathogen-free conditions in a 12 hour light and dark cycle with free access to food and water. All animal experiments were performed in accordance with the European protection laws of animal welfare, and with approval by the local government authorities Regierung von Oberbayern (reference number: 55.2.1-54-2532.2-11-12). At 11 or 15 weeks of age only mice with proteinuria (Albustix, Bayer AG, Leverkusen, Germany) were randomized into five different groups (n = 10) receiving different medicated diets: Three groups were fed with chow mixed with either 3, 10 or 30 mg/kg/day RO5459072, another group’s chow was mixed with 100 mg/kg/day mycophenolate mofetil (MMF), and one group received a standard diet (vehicle). The dose of MMF was chosen according to several studies reporting strong efficacy on SLE and lupus nephritis in MRL-(Fas)lpr mice[24]–[26]. […] At the age of 19 weeks all mice were sacrificed by cervical dislocation. Blood and urine samples were collected at different time points as indicated. In other experiments 7 week old female MRL-(Fas)lpr mice were randomized into three groups (n = 3) to receive a single intravenous injection of 10 µg sterile recombinant Cat-S and one group receiving vehicle (100 µl sterile PBS). One of the Cat-S groups was pretreated with 30 mg/kg/day RO5459072 starting one week prior to Cat-S injection; another group was pretreated with a total of four daily intra-peritoneal injections of the PAR-2 inhibitor GB83 (10 mg/kg).
Kidney tissue samples were collected from all mice and fixed overnight in 4% buffered formalin. Subsequently the fixed tissue samples were embedded in paraffin and cut into 4 µm thick serial sections. Kidney paraffin sections were stained with periodic acid-Schiff (PAS) reaction using standardized protocols as described. Scoring of lupus nephritis activity and chronicity indices was performed according to human lupus nephritis, [43]. Methenamine silver staining was performed on paraffin embedded kidney sections and semiquantitatively scored form 0–3 by a blinded observer. For immunostaining the following primary antibodies were used: anti-mouse CD3 (Abcam, Cambridge, UK), complement C3c (Biobyt Ltd, Cambridge, UK), CD31 (Dianova GmbH, Hamburg, Germany), WT1 (Santa Cruz Biotechnology, Dallas, Texas) and nephrin (Acris Antibodies, San Diego, CA). The immunostaining for C3c and CD31 were analyzed using the ImageJ software by measuring positively stained area and dividing it by the total area of the glomerulus and reported as percentage of +ve area. Sections stained for WT1/nephrin and CD3 were evaluated by counting positive cells per glomerulus. All the morphometric analysis were carried out in a blinded fashion.
Urinary albumin/creatinine ratios were determined using the Mouse Albumin ELISA Quantitation set (Bethyl Laboratories, Montgomery, TX) and the Creatinine FS kit (DiaSys Diagnostic Systems, Holzheim, Germany)[44]. BUN levels were determined in plasma samples using a Urea FS kit (DiaSys Diagnostic Systems). Mouse IgM, IgG and its isotypes IgG1, IgG2a and IgG2b plasma levels were measured using ELISA Sets (Bethyl Laboratories) at a plasma dilution of 1:1,000 to 1:100,000. Double-stranded DNA IgG and IgM antibodies were quantified as described. Briefly, 96 well Nunc-Immuno plates (Thermo Fisher Scientific, Roskilde, Denmark) were coated with poly-L-lysine (1:1 diluted with PBS) and incubated for two hours. After washing the plates, the plates were coated with 1 µg/ml mouse tail dsDNA sparing the wells for standards, which were coated with anti-mIgG and anti-mIgM (Bethyl Laboratories). The standard curve was fixed from purified mIgG and mIgM (Bethyl Laboratories). The plasma samples were diluted 1:1,000 and added into the wells. After 1 h the assay was developed using HRP-labelled goat anti-mIgG and anti-mIgM and TMB substrate (BD Bioscience, San Diego, CA). […]

[1] = biological target: T1, Cat-S in human purified B-cells (Homo sapiens, UniProt P25774); assay: lip10 (p10) accumulation assay in human purified B-cells (p10 ELISA); type: cell-based
T1 construct: Human B-cells were isolated from whole blood; endogenous in cells; host or cells: primary human CD19+ B cells from whole blood of healthy volunteers
Method: Human B-cells were isolated from whole blood using the Whole Blood CD19 Microbeads (Cat#130-090-880, Milteny) with the Whole Blood Column Kit (130-093-545, Milteny) according to the instruction leaflet. Isolated B-cells were adjusted to a cell density of 1 × 10^6 cells/ml in RPMI medium containing 10% FCS and 0.05 mM β-Mercaptoethanol (media and supplements are from Gibco). For each condition 100 µl of cell suspension was transferred into one well of a 96 well cell culture plate, respectively. For detection of p10, cells were treated with different concentrations of RO5459072 for 16 h in a cell culture incubator (37 °C; 5% CO2). Afterwards cells were lysed by adding 100 µl 2x NP-40 lysis buffer (20 mM Tris pH 8.0; 137 mM NaCl; 10% glycerol; 1% NP-40; 2 mM EDTA) containing HALT Protease inhibitor (Cat#78429, Pierce) for 30 min on ice. Before detection of accumulated p10-MHC-II complexes, interfering Ii-MHC-II associates were removed from the cell lysates. […] The CD74-18/3 antibody detects uncleaved invariant chain MHC-II complexes only. Afterwards p10-MHC-II complexes were analyzed by ELISA. For this purpose black Maxisorp plates from NUNC have been coated o/n with PIN.1 (5 µg/ml) from abcam (Cat#ab22603). The next day plates were blocked with blocking buffer for 1 h at 37 °C. Lysates containing 25,000 B-cells per condition were transferred to each well of the ELISA plate respectively and incubated together with the secondary antibody CD74-3/5-Biotin (15 ng/ml) o/n at 4 °C on a shaker. For signal amplification samples were incubated for 30 min with High Sensitive Streptavidin-HRP, 50 ng/ml (Cat#21134, Pierce). The amount of p10 was detected after 30 min of incubation with the QuantaBluTM Fluorogenic Substrate (Cat#15162, Pierce) at 325 nm excitation and 420 nm emission. In between each procedure of the ELISA assay the plates were washed twice with PBS−/− containing 0.05% TWEEN-20.
Supplementary figure 1. Biochemical and pharmacological profile of R05459072. (A)
Upregulation of invariant chain p10 levels in human B-cells was estimated by p10 ELISA, upon
treatment with increasing concentration of RO5459072.
upregulation in B-cells derived from 6 healthy volunteers. […]

T1 sequence (P25774 115-331): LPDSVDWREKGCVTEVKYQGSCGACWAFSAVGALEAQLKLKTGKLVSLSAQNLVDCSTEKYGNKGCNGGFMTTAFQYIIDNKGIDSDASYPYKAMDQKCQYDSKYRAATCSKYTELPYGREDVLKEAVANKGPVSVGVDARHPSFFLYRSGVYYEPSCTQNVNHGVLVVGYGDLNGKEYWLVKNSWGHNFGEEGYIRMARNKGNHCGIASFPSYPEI

EC50 ([1]; average of 6 healthy volunteers, 16 h treatment, read-out: EC50 of lip10 (p10) induction in human B-cells, average): 15.8 nM
EC50 ([1]; donor D1, read-out: EC50 of p10 upregulation in human B-cells, donor D1): 26.4 nM
EC50 ([1]; donor D2, read-out: EC50 of p10 upregulation in human B-cells, donor D2): 15.8 nM
EC50 ([1]; donor D3, read-out: EC50 of p10 upregulation in human B-cells, donor D3): 19.1 nM
EC50 ([1]; donor D4, read-out: EC50 of p10 upregulation in human B-cells, donor D4): 9.4 nM
EC50 ([1]; donor D5, read-out: EC50 of p10 upregulation in human B-cells, donor D5): 12.6 nM
EC50 ([1]; donor D6, read-out: EC50 of p10 upregulation in human B-cells, donor D6): 11.5 nM
Structure (SMILES): Cn1cc(-c2ccc(S(=O)(=O)[C@@H]3C[C@@H](C(=O)NC4(C#N)CC4)N(C(=O)C4(C(F)(F)F)CC4)C3)c(C(F)(F)F)c2)cn1 [RO5459072]
intrarenal mononuclear phagocyte and T cell subsets (MRL-(Fas)lpr mice; flow cytometry of kidneys): suppressed
reduction of urinary albumin/creatinine (A/C) ratio more than MMF (MRL-(Fas)lpr mice; highest dose of RO5459072 versus MMF): 2 log scales
plasma levels of antinuclear antibodies (MRL-(Fas)lpr mice; highest dose, week 19): suppressed
food intake or body weight between groups (MRL-(Fas)lpr mice; medicated diets, throughout the study period): no significant difference
intrarenal mRNA expression of IL-6, MCP-1/CCL2, RANTES/CCL5 and CXCL2 (MRL-(Fas)lpr mice; real time PCR, kidney): suppressed
intrarenal mRNA expression of TNF-α, IFN-γ and SDF-1/CXCL12 (MRL-(Fas)lpr mice; real time PCR, kidney): remained unaffected
blood urea nitrogen (BUN) over time (MRL-(Fas)lpr mice; week 11-19): prevented the progressive increase
podocyte number and proteinuria (MRL-(Fas)lpr mice; week 11-19): protective effect
dsDNA IgM (MRL-(Fas)lpr mice; week 11-19, ELISA): did not affect
total levels of plasma IgM (MRL-(Fas)lpr mice; week 11-19, ELISA): did not affect
spleen plasma cells and plasma IgG levels and IgG isotypes (MRL-(Fas)lpr mice; week 11-19, RO5459072 3, 10, 30 mg/kg/day, MMF 100 mg/kg/day): dose-dependently suppressed
plasma dsDNA IgG levels (IgG autoantibodies) (MRL-(Fas)lpr mice; week 11-19, RO5459072 highest dose, MMF 100 mg/kg/day, ELISA): suppress plasma dsDNA IgG levels below baseline
spleen CD11c+/CD11b+/MHCII+ antigen-presenting cells (MRL-(Fas)lpr mice; week 11-19, flow cytometry): suppressed
spleen CD11c+/F4/80+/MHCII+ cells (MRL-(Fas)lpr mice; week 11-19, flow cytometry): suppressed
complement C3 deposits, diffuse proliferative glomerular lesions and glomerulosclerosis (MRL-(Fas)lpr mice; week 19): less
integrity of the glomerular vasculature (CD31 staining) (MRL-(Fas)lpr mice; week 19): improved
activity and chronicity scores of nephritis (MRL-(Fas)lpr mice; week 19, PAS sections): dose-dependently reduced
